{"source": "patent US12679842B2", "about": "“HCK as a therapeutic target in MYD88 mutated diseases” (Dana-Farber Cancer Institute, Inc., priority 2019, dated 2026)", "key": {"[1]": {"test_system": "BTK C481S expressing lentiviral vector transduced TMD8 ABC-DLBCL cells", "experiment": "CellTiter-Glo cell viability assay in BTK WT or BTK C481S transduced TMD8 cells", "format": "cell-based", "details": "MYD88 mutated ABC DLBCL cells (TMD8), 72 hrs, FIG. 4"}, "[2]": {"test_system": "BTK C481S expressing lentiviral vector transduced BCWM.1 WM cells", "experiment": "CellTiter-Glo cell viability assay in BTK WT or BTK C481S transduced BCWM.1 cells", "format": "cell-based", "details": "MYD88 mutated WM cells (BCWM.1), 72 hrs, FIG. 4"}}, "data": [{"compound": "CN1CCN(C2CCC(n3nc(-c4ccc(Oc5ccccc5)cc4)c4c(N)nccc43)CC2)CC1", "note": "(centres unmarked) [Compound I-4]", "values": [{"measurement": "drug dose-response in BTK C481S expressing cells (ibrutinib resistance)", "setting": "[1]", "value": "overcomes BTKC481S mediated ibrutinib resistance"}, {"measurement": "drug dose-response in BTK C481S expressing cells (ibrutinib resistance)", "setting": "[2]", "value": "overcomes BTKC481S mediated ibrutinib resistance"}]}]}
